From patent publication US20260102501A1, “ANTI-CANCER NUCLEAR HORMONE RECEPTOR-TARGETING COMPOUNDS” (Nuvation Bio Inc., priority 2022, published 2026)

How the values were obtained:
LNCap cells = assay: Cell viability assay (CellTiterGlo); format: cell-based; conditions: Homo sapiens, 144 h, read-out: LNCap (IC50, nM)
T47D cells = assay: Cell viability assay (CellTiterGlo); format: cell-based; conditions: Homo sapiens, 144 h, read-out: T47D (IC50, nM)
[1] = target: T1, Progesterone Receptor (PR)-LBD and coactivator peptide (Homo sapiens, UniProt P06401); assay: PR coactivator antagonist assay; conditions: 2.5 nM PR-LBD, 10 nM progesterone-induced fluorescence response
T1 sequence (P06401 679-913 limits assumed): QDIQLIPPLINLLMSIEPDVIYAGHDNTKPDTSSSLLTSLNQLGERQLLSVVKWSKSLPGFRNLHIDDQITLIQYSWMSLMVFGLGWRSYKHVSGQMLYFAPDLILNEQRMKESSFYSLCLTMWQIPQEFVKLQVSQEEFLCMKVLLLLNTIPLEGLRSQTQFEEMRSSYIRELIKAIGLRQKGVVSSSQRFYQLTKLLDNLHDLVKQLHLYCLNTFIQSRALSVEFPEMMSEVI

IEC6 cells = assay: Cell viability assay (CellTiterGlo); conditions: Rattus norvegicus, IEC-6, 144 h, read-out: IEC-6 (IC50, nM)
Method: Cell viability assay: LNCap, 22Rv1, MCF7, MDAMB361, T47D, and IEC6 cells were seeded at a density of 500-2000 cells/well in 96 well plates, and a ‘T0’ (timepoint 0) was included along with the assay plate. The plates were then incubated at 37° C., 5% CO2 in a cell culture incubator overnight. On the next day, the ‘T0’ plate was assayed using CellTiterGlo (Promega, Inc) according to the manufacturer's instructions. The appropriate compounds were diluted in DMSO and added to the assay plate (final DMSO concentration of 0.1-0.2%) on the next day. The assay plates were incubated for 6 days at 37° C., 5% CO2. After the incubation period, the plates were assayed using CellTiterGlo (Promega, Inc) according to the manufacturer's instructions and luminescence was read on the En Vision plate reader. […] GraphPadPrism was used to analyze the data and determine GI50/IC50 values.

[2] = target: T2, AR (cytosol from LnCaP cells) (Homo sapiens, UniProt P10275, T878A); assay: AR binding assay (3H-R1881 displacement)
T2 sequence (P10275 1-920 T878A): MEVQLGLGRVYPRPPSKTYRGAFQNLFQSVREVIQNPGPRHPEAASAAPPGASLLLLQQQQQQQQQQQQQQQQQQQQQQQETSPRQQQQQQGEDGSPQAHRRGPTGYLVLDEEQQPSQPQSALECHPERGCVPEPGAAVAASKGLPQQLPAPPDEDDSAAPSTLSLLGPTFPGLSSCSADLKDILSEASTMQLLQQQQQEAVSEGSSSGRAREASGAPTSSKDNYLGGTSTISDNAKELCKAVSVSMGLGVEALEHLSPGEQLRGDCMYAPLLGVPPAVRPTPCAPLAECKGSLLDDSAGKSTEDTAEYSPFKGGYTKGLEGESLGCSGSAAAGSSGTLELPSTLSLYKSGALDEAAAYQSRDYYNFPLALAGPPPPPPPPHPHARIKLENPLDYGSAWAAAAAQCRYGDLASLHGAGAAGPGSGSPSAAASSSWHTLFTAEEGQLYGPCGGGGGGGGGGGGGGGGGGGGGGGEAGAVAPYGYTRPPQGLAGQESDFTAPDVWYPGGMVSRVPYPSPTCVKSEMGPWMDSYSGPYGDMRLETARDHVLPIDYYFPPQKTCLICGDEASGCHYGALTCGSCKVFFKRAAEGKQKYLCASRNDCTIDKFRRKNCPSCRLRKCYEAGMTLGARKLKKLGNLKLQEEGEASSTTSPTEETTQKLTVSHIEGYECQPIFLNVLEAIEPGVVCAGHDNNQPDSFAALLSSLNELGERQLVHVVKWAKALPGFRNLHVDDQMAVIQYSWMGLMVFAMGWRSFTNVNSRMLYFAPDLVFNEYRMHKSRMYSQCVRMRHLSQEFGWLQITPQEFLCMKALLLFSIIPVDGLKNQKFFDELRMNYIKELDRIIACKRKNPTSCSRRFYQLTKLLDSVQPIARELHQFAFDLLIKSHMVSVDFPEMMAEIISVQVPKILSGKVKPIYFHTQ
Method: The plate was then centrifuged at 3000 rpm for 30 minutes at 4° C.

[3] = target: T3, ligand binding domain of the glucocorticoid receptor (HEK293 cells stably expressing) (Homo sapiens, UniProt P04150); assay: GR antagonism assay (luciferase reporter)
T3 sequence (P04150 524-758 limits assumed): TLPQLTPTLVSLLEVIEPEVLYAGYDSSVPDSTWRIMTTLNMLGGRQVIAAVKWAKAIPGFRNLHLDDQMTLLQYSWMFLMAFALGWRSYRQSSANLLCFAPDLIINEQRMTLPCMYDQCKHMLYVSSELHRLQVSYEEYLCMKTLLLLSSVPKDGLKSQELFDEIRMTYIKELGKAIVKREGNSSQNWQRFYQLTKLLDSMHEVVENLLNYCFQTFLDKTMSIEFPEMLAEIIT

[4] = target: T4, GR (cytosol from IM-9 cells) (Homo sapiens, UniProt P04150); assay: GR binding assay (3H-Dexamethasone displacement)
T4 sequence (P04150 1-777): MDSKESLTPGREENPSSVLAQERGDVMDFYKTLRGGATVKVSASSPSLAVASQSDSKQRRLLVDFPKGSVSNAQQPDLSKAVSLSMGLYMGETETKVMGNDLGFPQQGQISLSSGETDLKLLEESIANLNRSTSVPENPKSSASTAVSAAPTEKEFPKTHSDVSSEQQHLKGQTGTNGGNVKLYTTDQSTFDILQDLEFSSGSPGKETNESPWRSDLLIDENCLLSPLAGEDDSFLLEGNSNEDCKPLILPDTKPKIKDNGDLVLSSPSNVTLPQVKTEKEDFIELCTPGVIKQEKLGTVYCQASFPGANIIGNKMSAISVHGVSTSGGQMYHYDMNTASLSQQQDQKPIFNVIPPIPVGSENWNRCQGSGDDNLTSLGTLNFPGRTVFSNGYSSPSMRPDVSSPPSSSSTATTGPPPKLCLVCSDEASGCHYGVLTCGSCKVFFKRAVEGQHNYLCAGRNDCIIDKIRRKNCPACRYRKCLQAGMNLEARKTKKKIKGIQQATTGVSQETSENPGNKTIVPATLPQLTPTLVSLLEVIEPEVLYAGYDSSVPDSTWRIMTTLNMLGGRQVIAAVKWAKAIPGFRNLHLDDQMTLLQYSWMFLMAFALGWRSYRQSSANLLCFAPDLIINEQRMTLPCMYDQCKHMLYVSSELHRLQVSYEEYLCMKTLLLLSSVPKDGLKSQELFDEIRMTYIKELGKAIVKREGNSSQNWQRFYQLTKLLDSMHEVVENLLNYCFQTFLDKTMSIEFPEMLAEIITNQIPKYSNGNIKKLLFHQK

[5] = target: T5, Progesterone PR-B receptors from human breast carcinoma T47D cells (Homo sapiens, UniProt P06401); assay: PR binding assay ([3H] Progesterone displacement)
T5 sequence (P06401 1-933): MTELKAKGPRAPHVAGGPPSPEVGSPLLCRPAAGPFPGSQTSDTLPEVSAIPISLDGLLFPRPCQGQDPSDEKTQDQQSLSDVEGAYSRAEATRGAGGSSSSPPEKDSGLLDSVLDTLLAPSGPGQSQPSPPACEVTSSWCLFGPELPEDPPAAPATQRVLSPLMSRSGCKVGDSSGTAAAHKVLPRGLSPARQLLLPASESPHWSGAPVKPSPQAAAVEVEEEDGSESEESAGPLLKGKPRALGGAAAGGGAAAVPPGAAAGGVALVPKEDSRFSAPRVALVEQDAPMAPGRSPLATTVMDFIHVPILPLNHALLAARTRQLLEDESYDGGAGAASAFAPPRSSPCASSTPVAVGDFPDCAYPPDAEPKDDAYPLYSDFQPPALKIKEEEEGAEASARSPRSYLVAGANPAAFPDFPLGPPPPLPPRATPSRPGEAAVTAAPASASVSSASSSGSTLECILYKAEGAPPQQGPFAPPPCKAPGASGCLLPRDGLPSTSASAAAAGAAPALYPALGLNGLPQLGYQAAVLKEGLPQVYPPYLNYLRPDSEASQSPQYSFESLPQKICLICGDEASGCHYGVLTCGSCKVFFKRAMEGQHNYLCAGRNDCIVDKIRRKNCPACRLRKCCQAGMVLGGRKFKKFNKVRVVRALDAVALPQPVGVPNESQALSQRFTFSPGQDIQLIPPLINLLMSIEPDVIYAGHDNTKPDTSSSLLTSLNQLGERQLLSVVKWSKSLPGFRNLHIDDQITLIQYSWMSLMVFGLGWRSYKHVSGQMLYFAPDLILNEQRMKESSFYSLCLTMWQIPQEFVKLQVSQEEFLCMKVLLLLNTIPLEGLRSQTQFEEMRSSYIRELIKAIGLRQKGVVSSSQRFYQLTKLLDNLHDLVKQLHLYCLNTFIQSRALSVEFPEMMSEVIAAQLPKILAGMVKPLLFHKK

Q: Which results are given for CC[C@@]1(OC(=O)CN(C)C)C(=O)OCc2c1cc1n(c2=O)Cc2cc3c(CN(C)C)c(OC(=O)N4CCN(CCCCCCN(C)c5ccc([C@H]6C[C@@]7(C)[C@@H](CC[C@]7(OC(C)=O)C(C)=O)[C@@H]7CCC8=CC(=O)CCC8=C76)cc5)CC4)ccc3nc2-1 [Compound No. 14, (S)-10-((Dimethylamino)methyl)-4-((dimethylglycyl)oxy)-4-ethyl-3,14-dioxo-3,4,12,14-tetrahydro-1H-pyrano[3′,4′:6,7]indolizino[1,2-b]quinolin-9-yl 4-(6-((4-((8S,11R,13S,14S,17R)-17-acetoxy-17-acetyl-13-methyl-3-oxo-2,3,6,7,8,11,12,13,14,15,16,17-dodecahydro-1H-cyclopenta[a]phenanthren-11-yl)phenyl)(methyl)amino)hexyl)piperazine-1-carboxylate]?
A: IC50 (LNCap cells): 101 to 1000 nM; IC50 (T47D cells): 10 to 100 nM; PR antagonism [1]: a (IC50 =< 10 nM); IC50 (IEC6 cells): 10 to 100 nM; IC50 [2]: 0.01 to 0.1 µM; IC50 [3]: 0.01 to 0.1 µM; IC50 [4]: < 0.01 µM; IC50 [5]: < 0.01 µM

Q: CCCCCCC(=O)O[C@]1(CC)C(=O)OCc2c1cc1n(c2=O)Cc2cc3c(CN(C)C)c(OC(=O)N4CCN(CCCCCCN(C)c5ccc([C@H]6C[C@@]7(C)[C@@H](CC[C@]7(OC(C)=O)C(C)=O)[C@@H]7CCC8=CC(=O)CCC8=C76)cc5)CC4)ccc3nc2-1 [Compound No. 12, (S)-10-((Dimethylamino)methyl)-4-ethyl-4-(heptanoyloxy)-3,14-dioxo-3,4,12,14-tetrahydro-1H-pyrano[3′,4′:6,7]indolizino[1,2-b]quinolin-9-yl 4-(6-((4-((8S,11R,13S,14S,17R)-17-acetoxy-17-acetyl-13-methyl-3-oxo-2,3,6,7,8,11,12,13,14,15,16,17-dodecahydro-1H-cyclopenta[a]phenanthren-11-yl)phenyl)(methyl)amino)hexyl)piperazine-1-carboxylate] was tested. Which IC50 (LNCap cells) did it give?
A: > 1000 nM

Q: What about the IC50 (T47D cells) of the same molecule?
A: > 1000 nM

Q: And the PR antagonism [1]?
A: a (IC50 =< 10 nM)

Q: And the IC50 (IEC6 cells)?
A: > 1000 nM

Q: And the IC50 [2]?
A: 0.101 to 1 µM

Q: And the IC50 [3]?
A: 0.01 to 0.1 µM

Q: What about the IC50 [4] of the same molecule?
A: < 0.01 µM

Q: And the IC50 [5]?
A: < 0.01 µM
